{
  "source": "patent US20250243196A1",
  "about": "“CITRON KINASE INHIBITORS” (The Cleveland Clinic Foundation, priority 2021, published 2025)",
  "assay_in_all_cases": "KinaseProfiler panel",
  "type_in_all_cases": "biochemical",
  "conditions_in_all_cases": "activity remaining",
  "key": {"Bmx(h)": {"biological_target": "Bmx(h) (Homo sapiens (Human), UniProt P51813)", "sequence (P51813 whole entry)": "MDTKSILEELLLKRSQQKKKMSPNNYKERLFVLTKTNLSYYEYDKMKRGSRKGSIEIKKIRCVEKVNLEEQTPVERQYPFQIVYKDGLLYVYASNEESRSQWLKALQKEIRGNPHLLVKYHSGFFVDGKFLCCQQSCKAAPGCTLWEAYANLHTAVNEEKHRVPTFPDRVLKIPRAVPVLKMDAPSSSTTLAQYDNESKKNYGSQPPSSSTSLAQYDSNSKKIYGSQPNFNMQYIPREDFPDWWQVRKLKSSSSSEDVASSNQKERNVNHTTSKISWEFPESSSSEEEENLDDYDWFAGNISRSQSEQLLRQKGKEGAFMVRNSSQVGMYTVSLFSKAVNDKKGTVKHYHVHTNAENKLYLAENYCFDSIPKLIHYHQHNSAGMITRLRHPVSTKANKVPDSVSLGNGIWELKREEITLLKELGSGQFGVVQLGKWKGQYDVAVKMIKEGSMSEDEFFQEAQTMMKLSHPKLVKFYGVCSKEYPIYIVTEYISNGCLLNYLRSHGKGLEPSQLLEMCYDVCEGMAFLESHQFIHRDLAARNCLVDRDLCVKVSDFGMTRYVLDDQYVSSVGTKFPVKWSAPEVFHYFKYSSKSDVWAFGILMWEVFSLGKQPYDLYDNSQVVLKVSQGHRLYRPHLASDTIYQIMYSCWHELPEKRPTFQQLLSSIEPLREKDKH", "set-up": "dose or concentration left out as unconfirmed"}, "BRK(h)": {"biological_target": "BRK(h) (Homo sapiens (Human), UniProt Q13882)", "set-up": "dose or concentration left out as unconfirmed"}, "CaMKIIα(h)": {"biological_target": "CaMKIIα(h) (Homo sapiens (Human), UniProt Q9UQM7)"}, "CK1δ(h)": {"biological_target": "CK1δ(h) (Homo sapiens (Human), UniProt P48730)", "set-up": "dose or concentration left out as unconfirmed"}, "EphA3(h)": {"biological_target": "EphA3(h) (Homo sapiens (Human), UniProt P29320)", "sequence (P29320 21-983)": "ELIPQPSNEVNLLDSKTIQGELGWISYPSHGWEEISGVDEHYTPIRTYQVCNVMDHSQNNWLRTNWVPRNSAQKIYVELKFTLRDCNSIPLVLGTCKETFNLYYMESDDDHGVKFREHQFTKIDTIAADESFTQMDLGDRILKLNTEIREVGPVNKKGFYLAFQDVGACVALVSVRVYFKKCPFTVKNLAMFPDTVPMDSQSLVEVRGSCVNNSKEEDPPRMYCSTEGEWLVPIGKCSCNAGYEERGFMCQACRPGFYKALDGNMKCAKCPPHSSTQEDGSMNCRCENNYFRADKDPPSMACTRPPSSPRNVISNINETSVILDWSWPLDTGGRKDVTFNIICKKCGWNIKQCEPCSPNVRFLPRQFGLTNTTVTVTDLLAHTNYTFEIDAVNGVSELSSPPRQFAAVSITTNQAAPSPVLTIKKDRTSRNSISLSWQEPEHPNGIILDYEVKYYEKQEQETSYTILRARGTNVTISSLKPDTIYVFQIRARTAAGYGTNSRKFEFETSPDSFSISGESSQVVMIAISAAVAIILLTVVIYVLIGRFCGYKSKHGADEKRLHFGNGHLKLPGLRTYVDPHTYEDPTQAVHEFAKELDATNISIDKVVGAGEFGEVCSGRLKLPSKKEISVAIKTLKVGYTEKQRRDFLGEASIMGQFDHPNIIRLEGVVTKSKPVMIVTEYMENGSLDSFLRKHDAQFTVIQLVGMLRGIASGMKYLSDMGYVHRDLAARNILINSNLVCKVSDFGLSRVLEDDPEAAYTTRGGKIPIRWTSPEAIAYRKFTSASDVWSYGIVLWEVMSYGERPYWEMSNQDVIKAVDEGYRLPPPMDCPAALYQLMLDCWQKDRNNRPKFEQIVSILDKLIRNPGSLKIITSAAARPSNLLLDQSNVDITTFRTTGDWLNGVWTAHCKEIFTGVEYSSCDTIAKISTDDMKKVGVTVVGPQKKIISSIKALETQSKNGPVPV", "set-up": "dose or concentration left out as unconfirmed"}, "Fer(h)": {"biological_target": "Fer(h) (Homo sapiens (Human), UniProt P16591)", "sequence (P16591 whole entry)": "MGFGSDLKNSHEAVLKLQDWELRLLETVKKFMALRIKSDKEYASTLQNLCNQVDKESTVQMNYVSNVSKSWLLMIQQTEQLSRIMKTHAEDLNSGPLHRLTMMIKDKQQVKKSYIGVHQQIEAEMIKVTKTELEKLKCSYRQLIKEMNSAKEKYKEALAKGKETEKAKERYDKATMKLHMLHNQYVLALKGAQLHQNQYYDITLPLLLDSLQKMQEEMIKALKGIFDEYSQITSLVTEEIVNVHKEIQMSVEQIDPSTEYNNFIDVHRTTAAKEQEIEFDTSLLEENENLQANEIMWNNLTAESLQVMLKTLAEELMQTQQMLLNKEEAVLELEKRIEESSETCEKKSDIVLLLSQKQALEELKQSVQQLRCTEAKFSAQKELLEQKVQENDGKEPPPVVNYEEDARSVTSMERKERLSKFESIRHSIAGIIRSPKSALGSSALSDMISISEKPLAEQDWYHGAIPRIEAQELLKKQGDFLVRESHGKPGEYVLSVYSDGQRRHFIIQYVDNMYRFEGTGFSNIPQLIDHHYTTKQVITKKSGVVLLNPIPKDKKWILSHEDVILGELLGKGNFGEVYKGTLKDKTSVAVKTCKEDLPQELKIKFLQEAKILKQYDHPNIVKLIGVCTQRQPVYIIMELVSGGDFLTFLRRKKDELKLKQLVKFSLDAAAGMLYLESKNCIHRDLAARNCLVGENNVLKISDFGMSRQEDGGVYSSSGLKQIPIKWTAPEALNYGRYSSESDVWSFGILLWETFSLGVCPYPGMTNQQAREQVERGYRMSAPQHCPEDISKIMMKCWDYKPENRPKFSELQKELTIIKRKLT", "set-up": "dose or concentration left out as unconfirmed"}, "FGFR1(h)": {"biological_target": "FGFR1(h) (Homo sapiens (Human), UniProt P11362)", "sequence (P11362 22-822)": "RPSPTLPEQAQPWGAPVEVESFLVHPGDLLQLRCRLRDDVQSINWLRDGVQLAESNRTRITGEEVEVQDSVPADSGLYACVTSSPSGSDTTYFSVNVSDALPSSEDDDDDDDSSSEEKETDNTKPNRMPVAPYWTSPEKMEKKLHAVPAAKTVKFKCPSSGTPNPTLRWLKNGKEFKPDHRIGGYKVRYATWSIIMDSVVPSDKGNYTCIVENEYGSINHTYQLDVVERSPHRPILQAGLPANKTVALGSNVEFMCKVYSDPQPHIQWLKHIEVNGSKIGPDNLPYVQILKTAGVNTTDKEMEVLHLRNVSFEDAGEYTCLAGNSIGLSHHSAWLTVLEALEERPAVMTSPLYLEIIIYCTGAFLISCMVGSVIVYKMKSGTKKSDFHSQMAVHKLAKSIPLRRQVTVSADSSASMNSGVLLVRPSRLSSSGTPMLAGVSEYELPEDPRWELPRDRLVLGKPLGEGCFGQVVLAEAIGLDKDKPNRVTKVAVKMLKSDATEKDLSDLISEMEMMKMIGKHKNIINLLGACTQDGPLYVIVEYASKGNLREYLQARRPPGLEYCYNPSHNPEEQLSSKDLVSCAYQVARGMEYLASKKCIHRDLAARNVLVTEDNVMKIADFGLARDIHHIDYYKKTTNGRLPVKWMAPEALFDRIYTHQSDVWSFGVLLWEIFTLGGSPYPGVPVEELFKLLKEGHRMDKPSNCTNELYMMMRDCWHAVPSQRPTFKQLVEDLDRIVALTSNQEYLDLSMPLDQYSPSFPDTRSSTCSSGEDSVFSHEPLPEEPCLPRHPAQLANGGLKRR", "set-up": "dose or concentration left out as unconfirmed"}, "Flt3(h)": {"biological_target": "Flt3(h) (Homo sapiens (Human), UniProt P36888)", "set-up": "dose or concentration left out as unconfirmed"}, "Fyn(h)": {"biological_target": "Fyn(h) (Homo sapiens (Human), UniProt P06241)", "set-up": "dose or concentration left out as unconfirmed"}, "HIPK3(h)": {"biological_target": "HIPK3(h) (Homo sapiens (Human), UniProt Q9H422)", "set-up": "dose or concentration left out as unconfirmed"}, "IRAK1(h)": {"biological_target": "IRAK1(h) (Homo sapiens (Human), UniProt P51617)", "set-up": "dose or concentration left out as unconfirmed"}, "LKB1(h)": {"biological_target": "LKB1(h) (Homo sapiens (Human), UniProt Q15831)", "set-up": "dose or concentration left out as unconfirmed"}, "MEK1(h)": {"biological_target": "MEK1(h) (Homo sapiens (Human), UniProt Q02750)", "sequence (Q02750 whole entry)": "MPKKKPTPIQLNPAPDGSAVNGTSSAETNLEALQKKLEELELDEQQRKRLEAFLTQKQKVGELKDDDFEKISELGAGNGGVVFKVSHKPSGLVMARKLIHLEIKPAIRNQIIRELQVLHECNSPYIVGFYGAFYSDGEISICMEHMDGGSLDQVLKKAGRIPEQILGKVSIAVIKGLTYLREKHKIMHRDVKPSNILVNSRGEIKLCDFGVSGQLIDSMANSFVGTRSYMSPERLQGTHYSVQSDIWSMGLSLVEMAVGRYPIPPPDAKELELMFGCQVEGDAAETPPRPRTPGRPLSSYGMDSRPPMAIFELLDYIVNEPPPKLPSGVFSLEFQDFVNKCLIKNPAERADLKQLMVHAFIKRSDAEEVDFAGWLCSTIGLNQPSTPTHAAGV", "set-up": "dose or concentration left out as unconfirmed"}, "MLK4(h)": {"biological_target": "MLK4(h) (Homo sapiens (Human), UniProt Q5TCX8)", "set-up": "dose or concentration left out as unconfirmed"}, "MRCKγ(h)": {"biological_target": "MRCKγ(h) (Homo sapiens (Human), UniProt Q6DT37)", "set-up": "dose or concentration left out as unconfirmed"}, "mTOR(h)": {"biological_target": "mTOR(h) (Homo sapiens (Human), UniProt P42345)", "set-up": "dose or concentration left out as unconfirmed"}, "NEK3(h)": {"biological_target": "NEK3(h) (Homo sapiens (Human), UniProt P51956)", "set-up": "dose or concentration left out as unconfirmed"}, "PAK4(h)": {"biological_target": "PAK4(h) (Homo sapiens (Human), UniProt O96013)", "set-up": "dose or concentration left out as unconfirmed"}, "PAR-1Bα(h)": {"biological_target": "PAR-1Bα(h) (Homo sapiens (Human), UniProt Q7KZI7)", "set-up": "dose or concentration left out as unconfirmed"}, "PASK(h)": {"biological_target": "PASK(h) (Homo sapiens (Human), UniProt Q96RG2)", "set-up": "dose or concentration left out as unconfirmed"}, "PDGFRα(h)": {"biological_target": "PDGFRα(h) (Homo sapiens (Human), UniProt P16234)", "set-up": "dose or concentration left out as unconfirmed"}, "PKA(h)": {"biological_target": "PKA(h) (Homo sapiens (Human), UniProt P17612)", "set-up": "dose or concentration left out as unconfirmed"}, "PKCβII(h)": {"biological_target": "PKCβII(h) (Homo sapiens (Human), UniProt P05771)", "set-up": "dose or concentration left out as unconfirmed"}, "PKG1β(h)": {"biological_target": "PKG1β(h) (Homo sapiens (Human), UniProt Q13976)", "set-up": "dose or concentration left out as unconfirmed"}, "PRAK(h)": {"biological_target": "PRAK(h) (Homo sapiens (Human), UniProt Q8IW41)", "set-up": "dose or concentration left out as unconfirmed"}, "PRK2(h)": {"biological_target": "PRK2(h) (Homo sapiens (Human), UniProt Q16513)", "sequence (Q16513 whole entry)": "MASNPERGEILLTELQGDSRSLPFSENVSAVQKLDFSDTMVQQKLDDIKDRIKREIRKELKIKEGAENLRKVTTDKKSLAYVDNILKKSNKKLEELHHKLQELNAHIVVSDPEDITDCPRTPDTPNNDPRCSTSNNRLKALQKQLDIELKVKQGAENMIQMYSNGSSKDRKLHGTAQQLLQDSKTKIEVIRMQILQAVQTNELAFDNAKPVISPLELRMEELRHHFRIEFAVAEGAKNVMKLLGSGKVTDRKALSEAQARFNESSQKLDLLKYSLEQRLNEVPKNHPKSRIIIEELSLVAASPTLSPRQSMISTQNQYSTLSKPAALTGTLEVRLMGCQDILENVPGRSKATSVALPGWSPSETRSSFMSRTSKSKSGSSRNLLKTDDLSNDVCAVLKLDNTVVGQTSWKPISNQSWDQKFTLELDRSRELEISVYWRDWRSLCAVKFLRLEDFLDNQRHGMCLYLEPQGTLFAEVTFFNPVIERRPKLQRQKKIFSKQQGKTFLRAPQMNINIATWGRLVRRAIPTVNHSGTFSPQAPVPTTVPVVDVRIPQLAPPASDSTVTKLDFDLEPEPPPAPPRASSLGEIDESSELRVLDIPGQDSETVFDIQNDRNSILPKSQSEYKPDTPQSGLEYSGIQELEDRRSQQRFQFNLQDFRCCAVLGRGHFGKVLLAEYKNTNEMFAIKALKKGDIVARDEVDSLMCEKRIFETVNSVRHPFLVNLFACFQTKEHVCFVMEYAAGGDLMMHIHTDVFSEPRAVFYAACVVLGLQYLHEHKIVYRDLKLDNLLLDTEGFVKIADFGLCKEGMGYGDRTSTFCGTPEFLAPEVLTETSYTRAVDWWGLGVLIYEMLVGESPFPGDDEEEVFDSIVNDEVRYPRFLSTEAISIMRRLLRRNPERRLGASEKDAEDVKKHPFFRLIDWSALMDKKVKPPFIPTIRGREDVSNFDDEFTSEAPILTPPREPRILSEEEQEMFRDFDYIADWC", "set-up": "dose or concentration left out as unconfirmed"}, "SGK3(h)": {"biological_target": "SGK3(h) (Homo sapiens (Human), UniProt Q96BR1)", "set-up": "dose or concentration left out as unconfirmed"}, "SIK(h)": {"biological_target": "SIK(h) (Homo sapiens (Human), UniProt P57059)", "set-up": "dose or concentration left out as unconfirmed"}, "SNRK(h)": {"biological_target": "SNRK(h) (Homo sapiens (Human), UniProt Q9NRH2)", "set-up": "dose or concentration left out as unconfirmed"}, "TAK1(h)": {"biological_target": "TAK1(h) (Homo sapiens (Human), UniProt O43318)", "sequence (O43318 1-303)": "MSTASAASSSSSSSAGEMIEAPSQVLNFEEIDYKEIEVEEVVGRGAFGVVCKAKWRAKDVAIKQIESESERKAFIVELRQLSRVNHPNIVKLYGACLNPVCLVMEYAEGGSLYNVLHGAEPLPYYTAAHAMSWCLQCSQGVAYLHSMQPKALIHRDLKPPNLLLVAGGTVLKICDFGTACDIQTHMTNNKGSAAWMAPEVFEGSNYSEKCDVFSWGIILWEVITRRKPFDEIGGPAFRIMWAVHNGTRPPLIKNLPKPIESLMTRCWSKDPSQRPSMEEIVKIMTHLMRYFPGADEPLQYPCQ", "set-up": "dose or concentration left out as unconfirmed"}, "TrkB(h)": {"biological_target": "TrkB(h) (Homo sapiens (Human), UniProt Q16620)", "set-up": "dose or concentration left out as unconfirmed"}, "ULK2(h)": {"biological_target": "ULK2(h) (Homo sapiens (Human), UniProt Q8IYT8)", "set-up": "dose or concentration left out as unconfirmed"}, "WNK3(h)": {"biological_target": "WNK3(h) (Homo sapiens (Human), UniProt Q9BYP7)", "set-up": "dose or concentration left out as unconfirmed"}},
  "data": [
    {"smiles": "Cc1cc2c(-c3ccc(NC(=O)[C@H](N)CC(C)(C)C)cc3C)ccnc2[nH]1", "note": "[Compound F-90, (2R)-2-Amino-4,4-dimethyl-N-[3-methyl-4-(2-methyl-1H-pyrrolo[2,3-b]pyridin-4-yl)phenyl]pentanamide]", "values": [
      {"measurement": "% Activity", "setting": "Bmx(h)", "value": 97, "unit": "%"},
      {"measurement": "% Activity", "setting": "BRK(h)", "value": 83, "unit": "%"},
      {"measurement": "% Activity", "setting": "CaMKIIα(h)", "value": 88, "unit": "%"},
      {"measurement": "% Activity", "setting": "CK1δ(h)", "value": 96, "unit": "%"},
      {"measurement": "% Activity", "setting": "EphA3(h)", "value": 79, "unit": "%"},
      {"measurement": "% Activity", "setting": "Fer(h)", "value": 103, "unit": "%"},
      {"measurement": "% Activity", "setting": "FGFR1(h)", "value": 100, "unit": "%"},
      {"measurement": "% Activity", "setting": "Flt3(h)", "value": 84, "unit": "%"},
      {"measurement": "% Activity", "setting": "Fyn(h)", "value": 100, "unit": "%"},
      {"measurement": "% Activity", "setting": "HIPK3(h)", "value": 85, "unit": "%"},
      {"measurement": "% Activity", "setting": "IRAK1(h)", "value": 95, "unit": "%"},
      {"measurement": "% Activity", "setting": "LKB1(h)", "value": 99, "unit": "%"},
      {"measurement": "% Activity", "setting": "MEK1(h)", "value": 101, "unit": "%"},
      {"measurement": "% Activity", "setting": "MLK4(h)", "value": 112, "unit": "%"},
      {"measurement": "% Activity", "setting": "MRCKγ(h)", "value": 98, "unit": "%"},
      {"measurement": "% Activity", "setting": "mTOR(h)", "value": 95, "unit": "%"},
      {"measurement": "% Activity", "setting": "NEK3(h)", "value": 110, "unit": "%"},
      {"measurement": "% Activity", "setting": "PAK4(h)", "value": 83, "unit": "%"},
      {"measurement": "% Activity", "setting": "PAR-1Bα(h)", "value": 88, "unit": "%"},
      {"measurement": "% Activity", "setting": "PASK(h)", "value": 72, "unit": "%"},
      {"measurement": "% Activity", "setting": "PDGFRα(h)", "value": 116, "unit": "%"},
      {"measurement": "% Activity", "setting": "PKA(h)", "value": 109, "unit": "%"},
      {"measurement": "% Activity", "setting": "PKCβII(h)", "value": 87, "unit": "%"},
      {"measurement": "% Activity", "setting": "PKG1β(h)", "value": 92, "unit": "%"},
      {"measurement": "% Activity", "setting": "PRAK(h)", "value": 107, "unit": "%"},
      {"measurement": "% Activity", "setting": "PRK2(h)", "value": 92, "unit": "%"},
      {"measurement": "% Activity", "setting": "SGK3(h)", "value": 102, "unit": "%"},
      {"measurement": "% Activity", "setting": "SIK(h)", "value": 105, "unit": "%"},
      {"measurement": "% Activity", "setting": "SNRK(h)", "value": 111, "unit": "%"},
      {"measurement": "% Activity", "setting": "TAK1(h)", "value": 91, "unit": "%"},
      {"measurement": "% Activity", "setting": "TrkB(h)", "value": 84, "unit": "%"},
      {"measurement": "% Activity", "setting": "ULK2(h)", "value": 98, "unit": "%"},
      {"measurement": "% Activity", "setting": "WNK3(h)", "value": 85, "unit": "%"}
    ]}
  ]
}
